Literature values, collected in US20180148781A1, “Antioxidant Compounds For Cleave Formulations That Support Long Reads In Sequencing-By-Synthesis” (QIAGEN Waltham, Inc., priority 2016, published 2018).

Details: pH 7.4

In the case of `O=C1O[C@H]([C@@H](O)CO)C(O)=C1O` [Ascorbic Acid], the “fraction present in mono-anionic form as ascorbate” value is given as 99.95%.
